Test results reported in US10745401B2, “Condensed lactam derivative” (Sumitomo Dainippon Pharma Co., Ltd., priority 2018, dated 2020).
pEC50, pIC50, pKi: −log10 of the molar value.

Tests used:
[1] = target: human D2 receptor (Homo sapiens (Human), UniProt P14416); assay: Test 1: binding activity for human D2 receptor ([3H]Spiperone, CHO cell membrane fraction); settings: for pKi: human D2 receptor, [3H]Spiperone; for D2 Ki/5-HT1A Ki / D2 Ki/5-HT2A Ki: selectivity ratio
Summary of the method: (§1)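 Compound displacement of [3H]ketanserin at 5-HT2A or [3H]spiperone at D2 was measured in CHO membrane fractions after 60 min at room temperature, with filtration and scintillation counting. IC50 was converted to Ki by Cheng–Prusoff using ligand concentration and Kd from saturation binding.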

[2] = target: P-gp (MDR1) (Homo sapiens (Human), UniProt P08183); assay: Test 9: P-gp substrate property (NFR, MDCKII and MDR1-MDCKII cells); type: in vitro ADME; settings: Net Flux Ratio, MDR1-MDCKII vs MDCKII cells
Sequence of P-gp (MDR1) (P08183 whole entry, species assumed): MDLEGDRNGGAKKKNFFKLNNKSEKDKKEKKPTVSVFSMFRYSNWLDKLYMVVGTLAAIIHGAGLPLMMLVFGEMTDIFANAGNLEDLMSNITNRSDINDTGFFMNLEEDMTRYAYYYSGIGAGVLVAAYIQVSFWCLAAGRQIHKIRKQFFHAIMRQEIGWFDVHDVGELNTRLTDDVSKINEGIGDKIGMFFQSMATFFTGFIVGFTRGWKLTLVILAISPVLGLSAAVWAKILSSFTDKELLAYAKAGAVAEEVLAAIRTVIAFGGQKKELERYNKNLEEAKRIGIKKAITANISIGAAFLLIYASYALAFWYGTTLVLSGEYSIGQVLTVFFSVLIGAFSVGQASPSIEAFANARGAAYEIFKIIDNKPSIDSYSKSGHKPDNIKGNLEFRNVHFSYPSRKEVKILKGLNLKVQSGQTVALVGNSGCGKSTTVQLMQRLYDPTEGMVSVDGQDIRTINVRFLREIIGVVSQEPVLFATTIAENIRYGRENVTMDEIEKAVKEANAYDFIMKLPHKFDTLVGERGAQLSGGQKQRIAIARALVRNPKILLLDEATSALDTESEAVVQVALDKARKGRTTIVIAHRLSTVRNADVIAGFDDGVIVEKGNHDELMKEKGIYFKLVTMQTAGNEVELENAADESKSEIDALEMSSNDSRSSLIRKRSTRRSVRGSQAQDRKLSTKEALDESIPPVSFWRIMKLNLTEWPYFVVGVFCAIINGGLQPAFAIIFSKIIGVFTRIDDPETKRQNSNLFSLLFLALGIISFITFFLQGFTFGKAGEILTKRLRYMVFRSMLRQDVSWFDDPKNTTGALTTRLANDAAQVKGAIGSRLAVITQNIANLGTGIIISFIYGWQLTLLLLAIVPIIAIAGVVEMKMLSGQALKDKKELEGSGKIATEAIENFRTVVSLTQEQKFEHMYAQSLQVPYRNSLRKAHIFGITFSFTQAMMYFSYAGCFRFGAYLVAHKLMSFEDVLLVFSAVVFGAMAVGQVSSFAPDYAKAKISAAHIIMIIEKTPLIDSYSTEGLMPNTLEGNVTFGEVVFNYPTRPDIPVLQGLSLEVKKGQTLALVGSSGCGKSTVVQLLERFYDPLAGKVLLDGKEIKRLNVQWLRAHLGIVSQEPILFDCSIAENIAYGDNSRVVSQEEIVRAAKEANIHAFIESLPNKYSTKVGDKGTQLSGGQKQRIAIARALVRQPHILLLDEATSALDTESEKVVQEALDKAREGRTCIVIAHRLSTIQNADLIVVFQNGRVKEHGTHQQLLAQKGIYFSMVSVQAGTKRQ
Description: […]
NFR (Net Flux Ratio), which is an index of P-gp substrate property, can be calculated as follows. MDCKII (Madin-Darby canine kidney strain II) cells and MDR1-MDCKII cells in which MDR1 (multidrug resistance protein 1) was overexpressed were used to measure an apparent permeability coefficient (Papp A-B) from lumen (A) to basement membrane (B) and an apparent permeability coefficient (Papp B-A) from basement membrane (B) to lumen (A) of both MDCKII cells and MDR1-MDCKII cells. NFR (Net Flux Ratio) was calculated from the ratio between Ratio (Papp B-A/Papp A-B) of an apparent permeability coefficient of MDR1-MDCKII cells and Ratio of an apparent permeability coefficient of MDCKII cells.

[3] = target: T1, human 5-HT2A receptor (Homo sapiens (Human), UniProt P28223); assay: Test 1: binding activity for human 5-HT2A receptor ([3H]Ketanserin, CHO cell membrane fraction)
T1 sequence (P28223 whole entry): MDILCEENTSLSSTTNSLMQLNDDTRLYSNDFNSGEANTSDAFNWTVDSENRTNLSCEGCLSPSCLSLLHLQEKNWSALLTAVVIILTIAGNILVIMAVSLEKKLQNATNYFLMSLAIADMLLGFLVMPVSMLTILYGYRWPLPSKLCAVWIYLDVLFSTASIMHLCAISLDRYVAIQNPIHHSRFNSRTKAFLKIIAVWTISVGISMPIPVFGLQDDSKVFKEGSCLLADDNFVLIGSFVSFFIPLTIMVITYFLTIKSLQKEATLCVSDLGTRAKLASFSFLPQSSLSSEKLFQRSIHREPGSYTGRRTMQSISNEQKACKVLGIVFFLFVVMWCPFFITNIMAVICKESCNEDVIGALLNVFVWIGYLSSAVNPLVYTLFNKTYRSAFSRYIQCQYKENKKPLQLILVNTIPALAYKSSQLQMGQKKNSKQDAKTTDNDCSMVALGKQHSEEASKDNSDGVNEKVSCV
Summary of the method: as §1

[4] = target: T1, human 5-HT2A receptor; assay: Test 3: antagonist activity for human 5-HT2A receptor (aequorin luminescence, CHO-K1 cells); type: cell-based; settings: CHO-K1 cells, 1 nmol/L 5-HT
Summary of the method: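 CHO-K1 cells transiently co-expressing aequorin, Gα16 and receptor; compound in DMSO added and luminescence recorded on FDSS/μCELL.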

[5] = Test 4: metabolic stability test in human hepatic microsome; type: in vitro ADME; settings: 0.1 mg/mL microsome, 0.1 μmol/L compound, 37° C., 30 minutes
Summary of the method: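 LC-MS quantified remaining parent after 30 min, 37° C, in pH 7.4 25 mmol/L phosphate containing 0.1 mg/mL human hepatic microsomes, 3.2 mmol/L NADPH and 0.1 μmol/L test compound. Value given as −LN(residual ratio)/30/0.1, mL/min/mg protein.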

[6] = target: hERG channel (Homo sapiens (Human), UniProt Q12809); assay: Test 6-1: inhibitory activity for hERG channel (auto patch clamp, Qpatch); type: cell-based; settings: for hERG inhibition IC50 (nmol/L)/5-HT1A Ki (nmol/L): ratio of hERG IC50 to 5-HT1A Ki; for hERG inhibition IC50 (nmol/L)/5-HT2A Ki (nmol/L): ratio of hERG IC50 to 5-HT2A Ki; for pIC50: whole cell auto patch clamp, hERG-CHO cells, read-out: hERG inhibition IC50
Sequence of hERG channel (Q12809 whole entry): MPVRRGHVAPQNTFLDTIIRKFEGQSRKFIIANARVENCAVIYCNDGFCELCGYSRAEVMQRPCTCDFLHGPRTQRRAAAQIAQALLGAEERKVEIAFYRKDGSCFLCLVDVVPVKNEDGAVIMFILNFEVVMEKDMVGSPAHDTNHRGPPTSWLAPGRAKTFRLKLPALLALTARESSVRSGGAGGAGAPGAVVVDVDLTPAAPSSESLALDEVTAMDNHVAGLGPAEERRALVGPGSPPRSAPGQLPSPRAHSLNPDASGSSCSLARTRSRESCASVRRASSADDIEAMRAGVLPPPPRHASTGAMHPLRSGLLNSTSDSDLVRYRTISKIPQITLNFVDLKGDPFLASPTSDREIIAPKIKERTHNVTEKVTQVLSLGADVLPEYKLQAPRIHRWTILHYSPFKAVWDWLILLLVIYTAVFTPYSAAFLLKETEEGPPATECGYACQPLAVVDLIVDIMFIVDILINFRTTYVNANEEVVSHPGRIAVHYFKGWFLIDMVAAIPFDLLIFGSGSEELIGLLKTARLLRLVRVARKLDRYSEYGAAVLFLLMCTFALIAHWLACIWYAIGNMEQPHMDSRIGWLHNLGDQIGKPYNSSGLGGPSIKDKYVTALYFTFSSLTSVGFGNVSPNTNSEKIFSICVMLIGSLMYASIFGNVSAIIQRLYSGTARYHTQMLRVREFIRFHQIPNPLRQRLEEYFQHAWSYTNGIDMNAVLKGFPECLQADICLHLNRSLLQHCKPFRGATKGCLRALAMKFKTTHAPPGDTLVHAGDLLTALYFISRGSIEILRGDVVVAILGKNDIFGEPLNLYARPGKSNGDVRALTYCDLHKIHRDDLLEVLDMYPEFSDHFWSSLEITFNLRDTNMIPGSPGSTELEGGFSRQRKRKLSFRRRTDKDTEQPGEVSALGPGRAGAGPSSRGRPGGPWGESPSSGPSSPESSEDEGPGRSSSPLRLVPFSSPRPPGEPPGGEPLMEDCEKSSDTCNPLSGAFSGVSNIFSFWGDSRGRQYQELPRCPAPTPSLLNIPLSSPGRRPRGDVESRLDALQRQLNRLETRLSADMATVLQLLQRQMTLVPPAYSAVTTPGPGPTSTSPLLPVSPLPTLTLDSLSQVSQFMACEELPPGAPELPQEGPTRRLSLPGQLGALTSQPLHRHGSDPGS
Summary of the method: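 Whole-cell patch clamp on an automated system using CHO cells stably expressing human hERG (IKr); 15 s pulse interval. Four increasing compound concentrations applied cumulatively; mean peak tail current from last 3 stimulations per concentration used. IC50 from inhibition versus pre-compound current, fitted by Hill equation.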

[7] = target: T2, human 5-HT1A receptor (Homo sapiens (Human), UniProt P08908); assay: Test 2: agonist activity for human 5-HT1A receptor ([35S]GTPγS binding); type: biochemical; settings: for pEC50: [35S]GTPγS binding, concentration at which half the activity of Emax was obtained; for Emax at 10 µM: agonist activity in the presence of 10 μM of compound, relative to 100 μmol/L 5-HT
T2 sequence (P08908 whole entry): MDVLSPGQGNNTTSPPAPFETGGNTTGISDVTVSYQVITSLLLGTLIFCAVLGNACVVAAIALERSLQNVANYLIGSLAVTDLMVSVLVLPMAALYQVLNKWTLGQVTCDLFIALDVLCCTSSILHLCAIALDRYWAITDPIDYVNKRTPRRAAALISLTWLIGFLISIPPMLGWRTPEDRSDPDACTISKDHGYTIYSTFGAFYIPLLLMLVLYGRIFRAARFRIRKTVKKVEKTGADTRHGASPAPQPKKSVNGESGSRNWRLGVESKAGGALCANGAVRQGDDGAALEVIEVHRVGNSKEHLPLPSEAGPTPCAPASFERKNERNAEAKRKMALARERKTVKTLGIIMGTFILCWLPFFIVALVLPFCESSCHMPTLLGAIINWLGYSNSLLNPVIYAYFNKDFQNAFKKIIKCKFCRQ
Summary of the method: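 [35S]GTPγS binding read-out: after 60 min at room temperature with test compound in GDP buffer, human 5-HT1A receptor CHO membranes were vacuum-filtered and retained radioactivity scintillation-counted. Agonist activity calculated by formula.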

[8] = target: T2, human 5-HT1A receptor; assay: Test 1: binding activity for human 5-HT1A receptor ([3H]8-OH-DPAT, CHO cell membrane fraction)
Summary of the method: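 Membranes incubated with [3H]8-OH-DPAT and compound for 60 min at room temperature, then filtered on polyethylenimine-coated glass-fibre plates and counted by liquid scintillation. IC50 from Hill analysis; Ki = IC50/(1+S/Kd), Kd from saturation binding on the same membranes.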

[9] = Test 5: predictive test of human half-life (monkey distribution volume, serum unbound fraction, microsomal stability); type: in vivo; settings: predicted from cynomolgus monkey distribution volume (i.v.), serum unbound fraction and human hepatic microsome stability
Description: Test 5: Predictive Test of Human Half-Life
The present compound was intravenously administered to cynomolgus monkey as an aqueous solution in 0.01 mol/L hydrochloric acid. Blood was collected on 5 minutes, 15 minutes, 30 minutes, 1 hour, 2 hours, 4 hours, 6 hours, and 24 hours after the administration. Plasma was obtained from the collected blood, the drug concentration in the plasma was measured by LC-MS, and the distribution volume of monkey was calculated from the transition of the concentration.
The unbound fraction rate of the present compound in human or monkey serum was measured by equilibrium dialysis method.
The half-life in human was calculated according to the following formula using the results of the distribution volume of monkey, the unbound fraction rate in human or monkey serum, and the metabolic stability in human hepatic microsome obtained in Test 3.

Sequence of human D2 receptor (P14416 whole entry): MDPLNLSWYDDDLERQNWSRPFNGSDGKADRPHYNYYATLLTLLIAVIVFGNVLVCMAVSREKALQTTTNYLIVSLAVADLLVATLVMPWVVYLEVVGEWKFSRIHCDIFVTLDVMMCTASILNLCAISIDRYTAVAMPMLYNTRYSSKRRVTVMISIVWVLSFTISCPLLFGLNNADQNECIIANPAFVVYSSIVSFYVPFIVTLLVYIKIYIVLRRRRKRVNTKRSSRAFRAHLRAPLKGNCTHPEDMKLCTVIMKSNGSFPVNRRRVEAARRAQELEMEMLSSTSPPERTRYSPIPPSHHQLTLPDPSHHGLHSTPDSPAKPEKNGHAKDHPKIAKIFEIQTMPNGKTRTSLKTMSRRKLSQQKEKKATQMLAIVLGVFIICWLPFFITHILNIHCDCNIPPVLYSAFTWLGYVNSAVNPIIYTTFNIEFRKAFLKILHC

SMILES | NFR [2] | half-life [9] | pIC50 [4] | pKi [1] | D2 Ki/5-HT1A Ki [1] | D2 Ki/5-HT2A Ki [1] | pKi [3] | pIC50 ([4]; aequorin luminescence) | Metabolic stability in human hepatic microsome [5] | hERG inhibition IC50 (nmol/L)/5-HT1A Ki (nmol/L) [6] | hERG inhibition IC50 (nmol/L)/5-HT2A Ki (nmol/L) [6] | pIC50 [6] | pEC50 [7] | Emax at 10 µM [7] | pKi [8]
O=C1c2nc(Cl)ccc2CCN1CCN1CCC(c2noc3ccccc23)CC1 [Example 146] | 2.3 |  |  | 6.11 | 255.8 | 72.4 | 7.97 | 6.70 | <0.05 mL/min/mg protein | 99 | 28 | 6.52 | 8.22 | 55% | 8.52
CCc1ccc2c(n1)C(=O)N(CCN1CCC(c3noc4ccccc34)CC1)CC2 [Example 185] | 2.4 |  |  | 5.93 | 358.6 | 41.4 | 7.55 | 7.16 | <0.05 mL/min/mg protein | 214 | 25 | 6.15 | 7.02 | 52% | 8.49
Cn1ccc2c1CCCN(CCN1CCC(c3noc4ccccc34)C1)C2=O (stereo not shown) [Example 175] |  |  |  | 5.46 | 195.2 | 251.4 | 7.86 | 6.51 | 0.125 mL/min/mg protein | 197 | 253 | 5.46 | 6.18 | 36% | 7.75
Cn1ncc2c1CCN(CCN1CCN(c3noc4ccccc34)CC1)C2=O [Example 131] |  |  |  | < 5.00 |  |  | 7.92 | 8.02 | <0.05 mL/min/mg protein |  |  | < 5.52 | 6.39 | 48% | 6.55
O=c1c2cnccc2ccn1CCN1CCN(c2noc3ccccc23)CC1 [Example 116] |  |  |  | < 5.00 |  |  | 7.59 | 7.30 | 0.1 mL/min/mg protein |  |  | 5.28 | 6.05 | 60% | 6.89
Cc1cncc2c1CCN(CCN1CCN(c3noc4ccccc34)CC1)C2=O [Example 137] |  |  |  | 5.97 | 5.8 | 96.4 | 7.95 | 8.62 | <0.05 mL/min/mg protein | 41 | 686 | 5.11 | 5.33 | 19% | 6.73
Cc1nc2c(o1)CCCN(CCN1CCC(c3noc4ccccc34)CC1)C2=O [Example 157] |  |  |  | 6.19 | 302.1 | 44.2 | 7.84 | 6.94 | <0.05 mL/min/mg protein | 754 | 110 | 5.80 | 7.28 | 47% | 8.67

Further lines, with some results ahead:

NFR [2] | half-life [9] | pIC50 [4] | SMILES | pKi [1] | D2 Ki/5-HT1A Ki [1] | D2 Ki/5-HT2A Ki [1] | pKi [3] | pIC50 ([4]; aequorin luminescence) | Metabolic stability in human hepatic microsome [5] | hERG inhibition IC50 (nmol/L)/5-HT1A Ki (nmol/L) [6] | hERG inhibition IC50 (nmol/L)/5-HT2A Ki (nmol/L) [6] | pIC50 [6] | pEC50 [7] | Emax at 10 µM [7] | pKi [8]
 | > 45 h |  | Cn1ccc2c1CCCN(CCN1CCC(c3noc4ccccc34)CC1)C2=O [Example 103, 5-{2-[4-(1,2-Benzoisoxazol-3-yl)piperidin-1-yl]ethyl}-1-methyl-5,6,7,8-tetrahydropyrrolo[3,2-c]azepin-4(1H)-one] | 6.89 |  |  |  |  | <0.01 mL/min/mg protein |  |  | 5.85 | 8.24 | 62% | 9.33
6.6 |  | 7.89 | Cn1cnc2c1CCN(CCN1CCN(c3nsc4ccccc34)CC1)C2=O [Example 54] |  |  |  |  |  | <0.01 mL/min/mg protein | >3637 | >1538 | < 5.00 | 7.42 | 55% | 
 |  | 7.70 | Cn1ncc2c1C(=O)N(CCN1CCC(c3noc4ccccc34)CC1)CC2 [Example 96, 6-{2-[4-(1,2-Benzoisoxazol-3-yl)piperidin-1-yl]ethyl}-1-methyl-1,4,5,6-tetrahydro-7H-pyrazolo[3,4-c]pyridin-7-one] | 6.99 | 9 | 14 | 8.14 |  | 0.019 mL/min/mg protein | 97 | 159 | 5.92 | 7.18 | 33% | 7.93
1.5 |  | 8.41 | Cn1ccc2c1CCN(CCN1CCC(c3noc4ccccc34)CC1)C2=O [Example 60] | 6.59 | 19 | 236 | 8.96 |  | 0.018 mL/min/mg protein | 51 | 640 | 6.15 | 7.37 | 54% | 7.86
1.1 |  | 8.05 | Cn1ncc2c1C(=O)N(CCN1CCN(c3nsc4ccccc34)CC1)CC2 [Example 59] | 6.90 | 63 | 278 | 9.35 |  | 0.173 mL/min/mg protein |  |  |  | 8.10 | 61% | 8.70
2.2 |  | 8.19 | Cn1ncc2c1CCCN(CCN1CCC(c3noc4ccccc34)CC1)C2=O [Example 43] | 6.65 | 171 | 239 | 9.03 |  | <0.01 mL/min/mg protein | 1630 | 2274 | 5.68 | 8.07 | 73% | 8.89
1.8 |  | 8.22 | Cn1cc2c(n1)CCN(CCN1CCN(c3nsc4ccccc34)CC1)C2=O [Example 36, 5-{2-[4-(1,2-Benzoisothiazol-3-yl)piperazin-1-yl]ethyl}-2-methyl-2,5,6,7-tetrahydro-4H-pyrazolo[4,3-c]pyridin-4-one] | 6.04 | 2007 | 1456 | 9.21 |  | 0.085 mL/min/mg protein | 7112 | 5162 | 5.49 | 8.57 | 78% | 9.35
